From the kinase profiling compilation of Christmann-Franck et al. (2016)

Experiments:
[1] = biological target: INSR (human) (UniProt P06213)
[2] = tested on: KIT (human), P10721 [A829P]; test: KINOMEscan competition binding; conditions: compound 10.0 µM
[3] = biological target: INSR (human) (UniProt P06213); test: KINOMEscan competition binding; conditions: compound 10.0 µM
[4] = biological target: FLT4 (human) (UniProt P35916); test: KINOMEscan competition binding; conditions: compound 10.0 µM
Chain of FLT4 (human) (P35916 whole entry, looked up): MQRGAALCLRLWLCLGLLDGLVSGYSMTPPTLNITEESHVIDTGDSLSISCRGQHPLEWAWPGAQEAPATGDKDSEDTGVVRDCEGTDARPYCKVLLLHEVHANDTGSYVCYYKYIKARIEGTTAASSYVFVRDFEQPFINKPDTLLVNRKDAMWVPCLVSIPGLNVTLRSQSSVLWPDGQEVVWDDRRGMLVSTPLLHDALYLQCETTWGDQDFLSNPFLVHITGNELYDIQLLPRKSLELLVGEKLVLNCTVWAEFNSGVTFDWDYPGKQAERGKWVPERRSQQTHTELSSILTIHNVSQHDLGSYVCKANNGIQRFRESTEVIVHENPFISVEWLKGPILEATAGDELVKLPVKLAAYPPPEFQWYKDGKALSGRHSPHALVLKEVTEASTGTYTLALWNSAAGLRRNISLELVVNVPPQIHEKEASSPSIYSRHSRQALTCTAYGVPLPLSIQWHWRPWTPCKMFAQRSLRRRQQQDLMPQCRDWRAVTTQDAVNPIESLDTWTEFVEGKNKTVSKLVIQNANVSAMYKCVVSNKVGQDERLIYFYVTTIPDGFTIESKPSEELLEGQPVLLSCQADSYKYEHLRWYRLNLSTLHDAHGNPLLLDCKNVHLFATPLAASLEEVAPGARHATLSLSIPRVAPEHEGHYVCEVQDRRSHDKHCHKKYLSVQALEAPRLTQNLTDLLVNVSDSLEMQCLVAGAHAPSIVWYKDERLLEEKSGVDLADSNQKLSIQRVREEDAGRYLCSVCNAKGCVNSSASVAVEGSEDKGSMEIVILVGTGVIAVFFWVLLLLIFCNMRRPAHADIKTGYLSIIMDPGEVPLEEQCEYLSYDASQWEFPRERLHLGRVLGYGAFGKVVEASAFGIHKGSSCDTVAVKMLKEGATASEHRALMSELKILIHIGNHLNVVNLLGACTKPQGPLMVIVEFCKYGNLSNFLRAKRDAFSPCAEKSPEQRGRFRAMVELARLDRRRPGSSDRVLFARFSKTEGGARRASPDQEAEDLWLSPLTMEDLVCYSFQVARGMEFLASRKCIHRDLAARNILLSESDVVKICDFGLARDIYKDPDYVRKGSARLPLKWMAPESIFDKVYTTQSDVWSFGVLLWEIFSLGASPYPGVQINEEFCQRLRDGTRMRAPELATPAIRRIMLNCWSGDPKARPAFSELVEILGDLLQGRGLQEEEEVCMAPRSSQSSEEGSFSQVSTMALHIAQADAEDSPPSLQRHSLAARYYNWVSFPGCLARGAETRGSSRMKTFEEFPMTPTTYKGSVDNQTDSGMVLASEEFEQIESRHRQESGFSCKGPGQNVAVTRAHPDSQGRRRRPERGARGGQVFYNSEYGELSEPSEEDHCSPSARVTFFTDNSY

[5] = biological target: CAMK1G (human) (UniProt Q96NX5); test: KINOMEscan competition binding; conditions: compound 10.0 µM
[6] = tested on: BRAF (human), P15056 [V600E]; test: KINOMEscan competition binding; conditions: compound 10.0 µM
[7] = biological target: CHEK1 (human) (UniProt O14757); test: KINOMEscan competition binding; conditions: compound 10.0 µM
[8] = biological target: TYK2 JH2 pseudokinase (human) (UniProt P29597); test: KINOMEscan competition binding; conditions: compound 10.0 µM
[9] = biological target: MAP2K3 (human) (UniProt P46734); test: KINOMEscan competition binding; conditions: compound 10.0 µM
[10] = biological target: STK25 (human) (UniProt O00506); test: KINOMEscan competition binding; conditions: compound 10.0 µM
[11] = biological target: MAP2K2 (human) (UniProt P36507); test: KINOMEscan competition binding; conditions: compound 10.0 µM
[12] = biological target: CSNK1E (human) (UniProt P49674); test: KINOMEscan competition binding; conditions: compound 10.0 µM
Chain of CSNK1E (human) (P49674 whole entry, looked up): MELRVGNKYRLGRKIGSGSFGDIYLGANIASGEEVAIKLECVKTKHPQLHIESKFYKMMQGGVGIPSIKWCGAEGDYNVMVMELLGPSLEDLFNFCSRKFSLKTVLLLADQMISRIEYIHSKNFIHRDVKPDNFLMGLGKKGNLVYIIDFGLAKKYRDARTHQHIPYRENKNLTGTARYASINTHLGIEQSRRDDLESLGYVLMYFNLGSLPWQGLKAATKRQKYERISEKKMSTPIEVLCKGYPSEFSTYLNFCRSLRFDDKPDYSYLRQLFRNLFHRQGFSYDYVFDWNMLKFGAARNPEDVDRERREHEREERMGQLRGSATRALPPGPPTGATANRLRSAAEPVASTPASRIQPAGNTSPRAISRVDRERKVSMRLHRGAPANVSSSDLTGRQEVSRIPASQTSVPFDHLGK

[13] = biological target: PRKACB (human) (UniProt P22694); test: KINOMEscan competition binding; conditions: compound 10.0 µM
[14] = biological target: RPS6KA2 KD2 (human) (UniProt Q15349); test: KINOMEscan competition binding; conditions: compound 10.0 µM
Chain of RPS6KA2 KD2 (human) (Q15349 whole entry, looked up): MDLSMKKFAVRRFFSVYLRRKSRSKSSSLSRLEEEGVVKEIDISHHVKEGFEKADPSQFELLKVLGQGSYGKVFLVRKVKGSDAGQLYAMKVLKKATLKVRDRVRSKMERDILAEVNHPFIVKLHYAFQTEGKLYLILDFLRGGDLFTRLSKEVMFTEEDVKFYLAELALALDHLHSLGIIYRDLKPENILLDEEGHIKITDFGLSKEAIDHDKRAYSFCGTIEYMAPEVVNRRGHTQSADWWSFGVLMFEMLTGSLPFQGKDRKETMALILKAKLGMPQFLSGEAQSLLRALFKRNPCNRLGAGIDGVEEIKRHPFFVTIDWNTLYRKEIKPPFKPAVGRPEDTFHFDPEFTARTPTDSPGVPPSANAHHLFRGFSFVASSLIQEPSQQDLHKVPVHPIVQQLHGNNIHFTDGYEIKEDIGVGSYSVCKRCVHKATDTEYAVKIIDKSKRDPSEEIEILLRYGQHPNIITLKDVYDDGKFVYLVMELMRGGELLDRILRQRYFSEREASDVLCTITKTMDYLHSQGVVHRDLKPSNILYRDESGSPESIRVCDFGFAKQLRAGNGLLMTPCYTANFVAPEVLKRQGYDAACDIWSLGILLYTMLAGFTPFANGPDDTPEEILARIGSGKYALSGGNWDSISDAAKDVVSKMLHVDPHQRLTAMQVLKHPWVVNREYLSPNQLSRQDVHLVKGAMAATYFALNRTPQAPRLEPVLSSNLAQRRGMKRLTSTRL

[15] = biological target: PRPF4B (human) (UniProt Q13523); test: KINOMEscan competition binding; conditions: compound 10.0 µM
[16] = biological target: RIPK4 (human) (UniProt P57078); test: KINOMEscan competition binding; conditions: compound 10.0 µM
Chain of RIPK4 (human) (P57078 whole entry, looked up): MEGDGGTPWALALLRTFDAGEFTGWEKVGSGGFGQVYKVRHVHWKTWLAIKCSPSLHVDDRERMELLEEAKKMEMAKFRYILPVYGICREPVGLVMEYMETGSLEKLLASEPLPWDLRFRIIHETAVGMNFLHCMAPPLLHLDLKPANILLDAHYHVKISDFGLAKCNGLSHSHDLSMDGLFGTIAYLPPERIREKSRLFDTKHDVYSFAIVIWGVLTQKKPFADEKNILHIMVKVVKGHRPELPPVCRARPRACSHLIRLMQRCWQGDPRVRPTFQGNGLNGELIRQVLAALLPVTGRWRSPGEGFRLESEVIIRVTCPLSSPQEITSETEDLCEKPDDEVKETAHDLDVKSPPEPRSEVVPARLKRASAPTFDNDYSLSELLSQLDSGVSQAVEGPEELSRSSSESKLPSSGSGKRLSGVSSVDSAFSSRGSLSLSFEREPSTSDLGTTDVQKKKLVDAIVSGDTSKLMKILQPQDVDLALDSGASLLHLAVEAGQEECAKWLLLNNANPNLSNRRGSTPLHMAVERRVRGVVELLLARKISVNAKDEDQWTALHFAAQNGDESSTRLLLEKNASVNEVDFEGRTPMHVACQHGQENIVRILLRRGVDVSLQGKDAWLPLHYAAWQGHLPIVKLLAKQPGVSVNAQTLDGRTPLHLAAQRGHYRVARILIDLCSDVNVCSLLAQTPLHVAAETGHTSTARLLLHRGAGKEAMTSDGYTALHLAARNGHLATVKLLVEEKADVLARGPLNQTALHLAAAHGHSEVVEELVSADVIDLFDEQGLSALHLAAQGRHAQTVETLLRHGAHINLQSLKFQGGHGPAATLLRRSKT

[17] = biological target: STK32B (human) (UniProt Q9NY57); test: KINOMEscan competition binding; conditions: compound 10.0 µM
[18] = tested on: EIF2AK4 KD2 (human), Q9P2K8 [S808G]; test: KINOMEscan competition binding; conditions: compound 10.0 µM
Chain of EIF2AK4 KD2 (human), Q9P2K8 [S808G] (Q9P2K8 whole entry S808G, looked up): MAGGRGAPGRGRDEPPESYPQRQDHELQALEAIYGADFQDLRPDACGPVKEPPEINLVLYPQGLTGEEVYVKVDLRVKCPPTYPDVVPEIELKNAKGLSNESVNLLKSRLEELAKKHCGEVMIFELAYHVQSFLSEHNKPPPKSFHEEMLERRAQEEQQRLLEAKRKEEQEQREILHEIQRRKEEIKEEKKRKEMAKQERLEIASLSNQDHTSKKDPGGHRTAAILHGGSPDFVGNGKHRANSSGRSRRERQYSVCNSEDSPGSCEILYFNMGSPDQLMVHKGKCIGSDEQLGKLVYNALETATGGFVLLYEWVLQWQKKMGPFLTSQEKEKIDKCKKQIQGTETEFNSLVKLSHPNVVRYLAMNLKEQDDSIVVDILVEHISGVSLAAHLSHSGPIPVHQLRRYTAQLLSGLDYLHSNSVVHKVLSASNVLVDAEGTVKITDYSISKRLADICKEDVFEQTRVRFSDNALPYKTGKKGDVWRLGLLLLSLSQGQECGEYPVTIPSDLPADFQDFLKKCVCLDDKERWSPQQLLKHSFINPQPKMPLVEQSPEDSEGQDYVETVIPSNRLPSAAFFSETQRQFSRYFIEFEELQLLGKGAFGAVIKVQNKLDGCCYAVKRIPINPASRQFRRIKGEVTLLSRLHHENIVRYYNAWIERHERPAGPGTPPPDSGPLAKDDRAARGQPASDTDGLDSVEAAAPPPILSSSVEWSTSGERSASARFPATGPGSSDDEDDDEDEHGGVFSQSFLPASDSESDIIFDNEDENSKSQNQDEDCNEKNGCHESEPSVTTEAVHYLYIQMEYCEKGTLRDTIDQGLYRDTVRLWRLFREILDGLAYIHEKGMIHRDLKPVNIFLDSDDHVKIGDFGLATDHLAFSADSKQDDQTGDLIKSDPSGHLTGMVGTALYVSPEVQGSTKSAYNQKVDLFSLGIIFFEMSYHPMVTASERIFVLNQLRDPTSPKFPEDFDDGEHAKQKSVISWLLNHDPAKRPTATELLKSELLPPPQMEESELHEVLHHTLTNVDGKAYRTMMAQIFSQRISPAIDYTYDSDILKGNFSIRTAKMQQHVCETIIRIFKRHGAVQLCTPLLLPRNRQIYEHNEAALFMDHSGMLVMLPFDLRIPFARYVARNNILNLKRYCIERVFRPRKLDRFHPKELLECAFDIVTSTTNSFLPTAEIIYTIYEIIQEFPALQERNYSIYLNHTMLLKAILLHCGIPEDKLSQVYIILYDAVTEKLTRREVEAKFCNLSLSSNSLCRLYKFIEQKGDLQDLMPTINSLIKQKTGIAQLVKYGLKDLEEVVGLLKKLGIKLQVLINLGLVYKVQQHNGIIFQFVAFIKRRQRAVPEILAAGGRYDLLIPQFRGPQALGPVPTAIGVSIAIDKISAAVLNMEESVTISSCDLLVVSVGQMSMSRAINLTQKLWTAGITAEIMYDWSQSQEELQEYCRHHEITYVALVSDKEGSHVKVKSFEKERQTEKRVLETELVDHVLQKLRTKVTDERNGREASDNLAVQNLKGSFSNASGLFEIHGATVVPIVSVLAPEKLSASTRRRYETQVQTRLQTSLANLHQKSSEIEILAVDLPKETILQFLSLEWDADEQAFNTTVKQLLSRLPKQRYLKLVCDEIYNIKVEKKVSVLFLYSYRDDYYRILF

[19] = tested on: AKT1 (human), P31749 [S473D]
[20] = biological target: IRAK4 (human) (UniProt Q9NWZ3)
[21] = biological target: MINK1 (human) (UniProt Q8N4C8)
[22] = biological target: MAPK10 (human) (UniProt P53779)
[23] = biological target: RIPK2 (human) (UniProt O43353); conditions: compound 10.0 µM
[24] = biological target: MARK2 (human) (UniProt Q7KZI7)
[25] = biological target: HIPK1 (human) (UniProt Q86Z02)
[26] = biological target: STK11 (human) (UniProt Q15831)
[27] = biological target: MAP3K9 (human) (UniProt P80192)
[28] = biological target: BRSK1 (human) (UniProt Q8TDC3)
[29] = biological target: NUAK1 (human) (UniProt O60285)
[30] = biological target: GCK (human) (UniProt Q12851)
[31] = biological target: MAPKAPK3 (human) (UniProt Q16644)
[32] = biological target: ERBB4 (human) (UniProt Q15303)
[33] = tested on: PAK2 (human), Q13177 [T402E]
[34] = biological target: MARK4 (human) (UniProt Q96L34)
[35] = biological target: MAP3K11 (human) (UniProt Q16584)
[36] = biological target: MYLK (human) (UniProt Q15746)
[37] = biological target: HIPK3 (human) (UniProt Q9H422)

## CC(C)n1nc(-c2cc3cc(O)ccc3[nH]2)c2c(N)ncnc21
[1]; compound 1.0 µM
  per cent of control: 69%
[1]; compound 10.0 µM
  per cent of control: 58%
[2]
  kinase still bound, per cent of control: 10%
[3]
  kinase still bound, per cent of control: 100%
[4]
  kinase still bound, per cent of control: 0.3%
[5]
  kinase still bound, per cent of control: 77%
[6]
  kinase still bound, per cent of control: 4.4%
[7]
  kinase still bound, per cent of control: 66%
[8]
  kinase still bound, per cent of control: 2.6%
[9]
  kinase still bound, per cent of control: 1.7%
[10]
  kinase still bound, per cent of control: 53%
[11]
  kinase still bound, per cent of control: 0.4%
[12]
  kinase still bound, per cent of control: 0.1%
[13]
  per cent of control: 65%
[14]
  kinase still bound, per cent of control: 62%
[15]
  kinase still bound, per cent of control: 90%
[16]
  kinase still bound, per cent of control: 6.3%
[17]
  kinase still bound, per cent of control: 8.2%
[18]
  kinase still bound, per cent of control: 81%

## CCC(=O)N1CCN(c2ccc(-n3c(=O)ccc4cnc5ccc(-c6cnc7ccccc7c6)cc5c43)cc2C(F)(F)F)CC1
[19]; compound 1.0 µM
  per cent of control: 94%
[19]; compound 10.0 µM
  per cent of control: 71%
[20]; compound 1.0 µM
  per cent of control: 112%
[20]; compound 10.0 µM
  per cent of control: 76%
[21]; compound 1.0 µM
  per cent of control: 69%
[21]; compound 10.0 µM
  per cent of control: 14%
[22]; compound 1.0 µM
  per cent of control: 99%
[22]; compound 10.0 µM
  per cent of control: 79%
[23]
  per cent of control: 64%
[24]; compound 1.0 µM
  per cent of control: 117%
[24]; compound 10.0 µM
  per cent of control: 102%
[25]; compound 1.0 µM
  per cent of control: 76%
[25]; compound 10.0 µM
  per cent of control: 85%
[26]; compound 1.0 µM
  per cent of control: 96%
[26]; compound 10.0 µM
  per cent of control: 80%
[27]; compound 1.0 µM
  per cent of control: 92%
[27]; compound 10.0 µM
  per cent of control: 48%
[28]; compound 1.0 µM
  per cent of control: 99%
[28]; compound 10.0 µM
  per cent of control: 94%
[29]; compound 1.0 µM
  per cent of control: 101%
[29]; compound 10.0 µM
  per cent of control: 79%
[30]; compound 1.0 µM
  per cent of control: 69%
[30]; compound 10.0 µM
  per cent of control: 25%
[31]; compound 1.0 µM
  per cent of control: 113%
[31]; compound 10.0 µM
  per cent of control: 105%
[32]; compound 1.0 µM
  per cent of control: 110%
[32]; compound 10.0 µM
  per cent of control: 111%
[33]; compound 1.0 µM
  per cent of control: 93%
[33]; compound 10.0 µM
  per cent of control: 82%
[34]; compound 1.0 µM
  per cent of control: 94%
[34]; compound 10.0 µM
  per cent of control: 97%
[35]; compound 1.0 µM
  per cent of control: 99%
[35]; compound 10.0 µM
  per cent of control: 86%
[36]; compound 1.0 µM
  per cent of control: 94%
[36]; compound 10.0 µM
  per cent of control: 83%
[37]; compound 1.0 µM
  per cent of control: 107%
[37]; compound 10.0 µM
  per cent of control: 91%
[3]
  kinase still bound, per cent of control: 7.6%
[4]
  kinase still bound, per cent of control: 74%
[5]
  kinase still bound, per cent of control: 74%
[8]
  kinase still bound, per cent of control: 55%
[9]
  kinase still bound, per cent of control: 80%
[10]
  kinase still bound, per cent of control: 84%
[11]
  kinase still bound, per cent of control: 100%
[12]
  kinase still bound, per cent of control: 59%
[13]
  per cent of control: 100%
[14]
  kinase still bound, per cent of control: 85%
[15]
  kinase still bound, per cent of control: 100%
[16]
  kinase still bound, per cent of control: 100%
[17]
  kinase still bound, per cent of control: 87%
[18]
  kinase still bound, per cent of control: 99%

## COc1ccc(-c2ccc3c(N4CCOCC4)nc(N4C[C@@H](C)O[C@@H](C)C4)nc3n2)cc1CO
[1]; compound 1.0 µM
  per cent of control: 81%
[1]; compound 10.0 µM
  per cent of control: 67%
[2]
  kinase still bound, per cent of control: 100%
[3]
  kinase still bound, per cent of control: 97%
[4]
  kinase still bound, per cent of control: 100%
[5]
  kinase still bound, per cent of control: 94%
[6]
  kinase still bound, per cent of control: 92%
[7]
  kinase still bound, per cent of control: 99%
[8]
  kinase still bound, per cent of control: 86%
[9]
  kinase still bound, per cent of control: 94%
[10]
  kinase still bound, per cent of control: 100%
[11]
  kinase still bound, per cent of control: 92%
[12]
  kinase still bound, per cent of control: 87%
[13]
  per cent of control: 96%
[14]
  kinase still bound, per cent of control: 94%
[15]
  kinase still bound, per cent of control: 100%
[16]
  kinase still bound, per cent of control: 71%
[17]
  kinase still bound, per cent of control: 100%
[18]
  kinase still bound, per cent of control: 66%
